Results taken from PMC11963566, “A phase I, single-center, randomized, open-label, three-period crossover study to evaluate the drug–drug interaction between ZSP1273 and oseltamivir in healthy Chinese subjects” (Antimicrobial Agents and Chemotherapy, 2025).
Like-named read-outs stand apart in the source and are kept apart here.

How the values were obtained:
[1] = Safety assessment: adverse events (CTCAE 5.0, MedDRA 23.1) in healthy subjects; type: in vivo, human
Experimental: Safety assessment was conducted from the first administration of the investigational drug until the end of the trial. Safety indicators included adverse events (AEs), serious adverse events (SAEs), clinical laboratory tests (hematology, biochemistry, and urinalysis), vital signs, physical examination, and 12-lead electrocardiogram.
The severity of AE was assessed according to the CTCAE 5.0 standard and includes grades 1 to 5. Based on the criteria for determining causality between drugs and adverse events, the relationship was classified into five levels: definitely related, probably related, possibly related, probably not related, definitely not related. Among them, definitely related, probably related, and possibly related are defined as drug-related AEs.
Adverse events were coded using Med DRA 23.1 Chinese ([30]) and analyzed based on system organ class (SOC) and preferred term (PT). Adverse events during the treatment period, drug-related adverse events, and serious adverse events were described by frequency, number of cases (n), and incidence rate (%) according to SOC, PT, and the highest severity classification.

clinical = conditions: human; for AUC(0-inf): AUC0-∞,ss
[2] = SOC Gastrointestinal disorders, probably related
[3] = SOC General disorders and administration site conditions, possibly related
[4] = SOC Infections and infestations, probably not related
[5] = SOC Investigations, possibly related
[6] = SOC Investigations, probably not related
[7] = SOC Skin and subcutaneous tissue disorders, possibly related
[8] = healthy subjects, 5 days dosing
[9] = subjects with AUC_%Extrap >20.0% or Rsq <0.800 excluded

Structure (SMILES): CCOC(=O)C1=C[C@@H](OC(CC)CC)[C@H](NC(C)=O)[C@@H](N)C1 [Oseltamivir, oseltamivir]
- Gastrointestinal disorders (SOC): Cases (%) ([1]; AE by system organ class): 0 Cases (%)
- Gastrointestinal disorders (SOC): Occurrences ([1]; AE by system organ class): 0
- General disorders and administration site conditions (SOC): Cases (%) ([1]; AE by system organ class): 0 Cases (%)
- General disorders and administration site conditions (SOC): Occurrences ([1]; AE by system organ class): 0
- Infections and infestations (SOC): Cases (%) ([1]; AE by system organ class): 1 (2.9) Cases (%)
- Infections and infestations (SOC): Occurrences ([1]; AE by system organ class): 1
- Investigations (SOC): Cases (%) ([1]; AE by system organ class): 6 (17.6) Cases (%)
- Investigations (SOC): Occurrences ([1]; AE by system organ class): 12
- Skin and subcutaneous tissue disorders (SOC): Cases (%) ([1]; AE by system organ class): 1 (2.9) Cases (%)
- Skin and subcutaneous tissue disorders (SOC): Occurrences ([1]; AE by system organ class): 1
- Diarrhea: Cases (%) [1, 2]: 0 Cases (%)
- Diarrhea: Occurrences [1, 2]: 0
- Fever: Cases (%) [1, 3]: 0 Cases (%)
- Fever: Occurrences [1, 3]: 0
- Upper respiratory tract infection (URTI): Cases (%) [1, 4]: 1 (2.9) Cases (%)
- Upper respiratory tract infection (URTI): Occurrences [1, 4]: 1
- Decreased blood triglycerides: Cases (%) [1, 5]: 1 (2.9) Cases (%)
- Decreased blood triglycerides: Occurrences [1, 5]: 1
- Decreased high-density lipoprotein (HDL): Cases (%) [1, 5]: 2 (5.9) Cases (%)
- Decreased high-density lipoprotein (HDL): Occurrences [1, 5]: 2
- Decreased neutrophil count: Cases (%) [1, 5]: 0 Cases (%)
- Decreased neutrophil count: Occurrences [1, 5]: 0
- Increased blood cholesterol: Cases (%) [1, 5]: 0 Cases (%)
- Increased blood cholesterol: Occurrences [1, 5]: 0
- Increased blood creatinine: Cases (%) [1, 5]: 0 Cases (%)
- Increased blood creatinine: Occurrences [1, 5]: 0
- Increased blood triglycerides: Cases (%) [1, 5]: 1 (2.9) Cases (%)
- Increased blood triglycerides: Occurrences [1, 5]: 1
- Increased blood uric acid: Cases (%) [1, 5]: 1 (2.9) Cases (%)
- Increased blood uric acid: Occurrences [1, 5]: 1
- Increased gamma-glutamyl transferase (GGT): Cases (%) [1, 5]: 0 Cases (%)
- Increased gamma-glutamyl transferase (GGT): Occurrences [1, 5]: 0
- Increased lipase: Cases (%) [1, 5]: 0 Cases (%)
- Increased lipase: Occurrences [1, 5]: 0
- Increased low-density lipoprotein (LDL): Cases (%) [1, 5]: 0 Cases (%)
- Increased low-density lipoprotein (LDL): Occurrences [1, 5]: 0
- Crystals present in urine: Cases (%) [1, 6]: 1 (2.9) Cases (%)
- Crystals present in urine: Occurrences [1, 6]: 1
- Decreased hemoglobin: Cases (%) [1, 6]: 2 (5.9) Cases (%)
- Decreased hemoglobin: Occurrences [1, 6]: 2
- Increased urine specific gravity: Cases (%) [1, 6]: 1 (2.9) Cases (%)
- Increased urine specific gravity: Occurrences [1, 6]: 1
- Nitrites present in urine: Cases (%) [1, 6]: 1 (2.9) Cases (%)
- Nitrites present in urine: Occurrences [1, 6]: 1
- Positive urine occult blood: Cases (%) [1, 6]: 1 (2.9) Cases (%)
- Positive urine occult blood: Occurrences [1, 6]: 1
- Protein detected in urine: Cases (%) [1, 6]: 1 (2.9) Cases (%)
- Protein detected in urine: Occurrences [1, 6]: 1
- Acneiform dermatitis: Cases (%) [1, 7]: 1 (2.9) Cases (%)
- Acneiform dermatitis: Occurrences [1, 7]: 1
- Maculopapular rash: Cases (%) [1, 7]: 0 Cases (%)
- Maculopapular rash: Occurrences [1, 7]: 0
- increased blood triglycerides, incidence ([1]; drug-related adverse event): 2.9%
- At least one treatment-emergent adverse event (TEAE): Cases (%) [1, 8]: 7 (20.6) Cases (%)
- At least one treatment-emergent adverse event (TEAE): Occurrences [1, 8]: 14
- At least one treatment-emergent adverse event related to drugs: Cases (%) [1, 8]: 5 (14.7) Cases (%)
- At least one treatment-emergent adverse event related to drugs: Occurrences [1, 8]: 6
- AUC(0-t) (clinical; in vivo, AUC0-t,ss, geometric mean): 170 ng·h/mL
- AUC (clinical; in vivo, AUC0-τ,ss, geometric mean): 167 ng·h/mL
- AUC(0-inf) (clinical; in vivo, geometric mean): 175 ng·h/mL
- AUC(0-inf) (clinical; in vivo, geometric mean, monotherapy, subjects with AUC_%Extrap >20.0% or Rsq <0.800 excluded): 175 ng·h/mL
- Cmax (clinical; in vivo, Cmax,ss, geometric mean): 91.2 ng/mL
- Tmax (clinical; in vivo, po, Tmax,ss): 0.5 h
- Vd/F (clinical; in vivo, po, Vz/F): 3070 L
- half-life (clinical; in vivo, po, t1/2,ss): 4.5 ± 4.8 h
- AUC(0-inf) (clinical; plasma, oral, geometric mean, co-administration ZSP1273 + oseltamivir, plasma, day 5, all subjects): 163 ng·h/mL
- k el (clinical; plasma, po, 75 mg): 7.78e-05 s⁻¹
- AUC0-t,ss, geometric mean ratio co-administration/monotherapy (human, in vivo): 92.7%
- AUC0-τ,ss, geometric mean ratio co-administration/monotherapy (human, in vivo): 92.2%
- AUC0-∞,ss, geometric mean ratio co-administration/monotherapy (human, in vivo): 92.6%
- AUC0-∞,ss, intra-individual coefficient of variation (human, in vivo): 11.8%
- Cmax,ss, geometric mean ratio co-administration/monotherapy (human, in vivo): 60.1%
- decrease in Cmax,ss after co-administration (human, in vivo): 39.9%
- CLss/F (human, in vivo, po): 459.8 ± 106.3 (23.1%) L/h
- AUC0-∞,ss, geometric mean ratio co-administration/monotherapy [9]: 93.5%
- AUC0-∞,ss, intra-individual coefficient of variation [9]: 10.7%
